Reference: ChEMBL document CHEMBL1201862, “PubChem BioAssay data set” (2004)
Calls of active or inactive are those of the source.

Key:
[1] = molecular target: T1, Zinc finger protein mex-5 (Caenorhabditis elegans, UniProt Q9XUB2); assay: MEX-5/TCR-2 RNA interaction inhibitors, dose response, biochemical, C. elegans, fluorescence polarization (AID 1960)
T1 sequence (Q9XUB2 whole entry): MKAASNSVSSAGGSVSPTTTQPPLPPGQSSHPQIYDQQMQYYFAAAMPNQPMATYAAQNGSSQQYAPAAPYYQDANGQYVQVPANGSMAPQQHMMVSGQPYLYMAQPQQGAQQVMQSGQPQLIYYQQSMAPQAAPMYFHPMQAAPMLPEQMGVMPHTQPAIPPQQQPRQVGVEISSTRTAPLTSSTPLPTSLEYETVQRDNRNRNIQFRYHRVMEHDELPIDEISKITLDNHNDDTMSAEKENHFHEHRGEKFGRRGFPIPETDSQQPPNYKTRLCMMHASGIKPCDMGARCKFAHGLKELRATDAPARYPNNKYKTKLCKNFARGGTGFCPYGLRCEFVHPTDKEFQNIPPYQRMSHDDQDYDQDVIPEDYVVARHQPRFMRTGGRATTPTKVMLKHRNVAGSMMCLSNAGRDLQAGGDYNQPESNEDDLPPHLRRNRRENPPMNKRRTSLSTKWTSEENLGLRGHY

[2] = molecular target: T2, Probable nicotinate-nucleotide adenylyltransferase (Staphylococcus aureus (strain N315), UniProt P65502); format: functional, Staphylococcus aureus subsp. aureus N315; details: read-out: IC50_Mean;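 for IC50 Mean: confirmatory dose-response retesting of NadD inhibitor hits first found in an ultra-high-throughput screen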
[3] = molecular target: T2, Probable nicotinate-nucleotide adenylyltransferase; format: functional, Staphylococcus aureus subsp. aureus N315
[4] = molecular target: T3, RNA-binding protein pos-1 (Caenorhabditis elegans, UniProt G5EF15); assay: inhibitors of POS-1/mex-3 RNA binding, dose response, biochemical, fluorescence polarization (AID 1964);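 note: purified POS-1 fused to maltose binding protein made in E. coli; potency of compounds blocking POS-1 binding to fluorescent RNA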
T3 sequence (G5EF15 whole entry): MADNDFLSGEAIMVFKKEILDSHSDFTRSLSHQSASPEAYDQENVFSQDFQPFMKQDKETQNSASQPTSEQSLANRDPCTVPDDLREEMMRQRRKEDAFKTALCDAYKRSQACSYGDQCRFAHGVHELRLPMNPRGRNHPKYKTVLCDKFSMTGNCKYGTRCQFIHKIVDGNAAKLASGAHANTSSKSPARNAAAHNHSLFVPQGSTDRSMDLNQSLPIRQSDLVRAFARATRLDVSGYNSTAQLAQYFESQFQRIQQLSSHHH

[5] = HEK293T cytotoxicity, dose response, cytotoxicity control for miR-122 modulator project, cell-based, inhibitor set, cherry-pick, set 2 (AID 720697); format: functional
[6] = miR-122 activators in hepatoma reporter cells, dose response, cell-based, Huh7 psiCHECK-miR122, Renilla luciferase, cherry-picked (AID 651956); format: functional;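 note: huh7 hepatoma cells stably carrying a psiCHECK-2 miR-122 sensor plasmid; renilla luciferase signal reporting endogenous miR-122 activity after 48 h compound exposure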
cells [7] = format: functional, cell-based
cells [8] = format: functional, cell-based; remark: listed apart in the source
[9] = CEM21 lymphoblast cell cytotoxicity, dose response, cytotoxicity control for viral fusion inhibitor project, CellTiter-Glo luminescence, cherry-picked (AID 652042); format: functional, cell-based;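 note: potency for signal decrease meaning cytotoxicity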
[10] = inhibitors of HIV Env-driven cell fusion, dose response, cherry-pick (AID 652057); format: functional, cell-based
Paired box protein Pax-8 = Paired box protein Pax-8 (Homo sapiens, UniProt Q06710); assay: inhibitors of PAX8-driven TPO luciferase reporter, dose response, RMG-I cells, cherry-pick (AID 687027); format: functional, cell-based;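 note: luciferase reporter driven by Pax8 target thyroperoxidase promoter measured by SteadyGlo luminescence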
[11] = ZM109 Env clade C HIV-1 fusion inhibitors, dose response, HeLa effector, CEM target cells, luciferase, cherry-pick (AID 652058); format: functional, cell-based
[12] = inhibitors of clade B AD8 Env fusion, dose response, cell-based, cherry-pick (AID 652062); format: functional;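 note: luciferase signal from cell-cell fusion driven by HIV-1 clade B AD8 Env; potency is for inhibitors of fusion seen as a drop in luminescence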
[13] = non-specific cell cytotoxicity, dose response, cytotoxicity control for PAX8 inhibitor project, plate reader, dry powder samples (AID 743021); format: functional, cell-based
[14] = off-target signal loss in HeLa-CEM21 co-culture – HeLa F-luc CTL cells, cherry-picked, counter-screen for HIV-1 Env fusion inhibitor project, dose response (AID 652040); format: functional, cell-based;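 note: potency for signal decrease marking cytotoxic or nonspecific inhibition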
[15] = cytotoxicity in HEK-293T cells, dose response, cytotoxicity control for TCR NF-kB inhibitor project, luminescence, T-cell screen hits (AID 489026); format: functional, cell-based;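 note: cells exposed to compound about 14 hours before the viability readout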
INS1 = assay: beta cell apoptosis inhibitors, cytokine rescue, dose response, luminescence, retest (AID 449756); format: functional, cell-based; details: Rattus norvegicus;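 note: cell death triggered by IL-1 beta plus TNF-alpha plus IFN-gamma mixture; protective hits raise ATP signal compared with cytokine alone wells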
[16] = Shn3 3'UTR reporter inhibitors, dose response, cell-based, Clone20 osteoblasts, firefly luciferase, cherry-picked (AID 624132); format: functional;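 note: firefly luciferase luminescence from reporter carrying the Shn3 3'UTR in osteoblasts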
[17] = molecular target: T4, COUP transcription factor 2 (Homo sapiens, UniProt P24468); assay: Luminescence-based cell-based high throughput dose response assay to identify inhibitors of COUP-TFII (NR2F2).; format: functional;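 note: HEK293 cells transiently cotransfected with COUP-TFII expression vector and reporter; luciferase reporter luminescence driven by COUP-TFII from the pX2-168 reporter plasmid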
T4 sequence (P24468 whole entry): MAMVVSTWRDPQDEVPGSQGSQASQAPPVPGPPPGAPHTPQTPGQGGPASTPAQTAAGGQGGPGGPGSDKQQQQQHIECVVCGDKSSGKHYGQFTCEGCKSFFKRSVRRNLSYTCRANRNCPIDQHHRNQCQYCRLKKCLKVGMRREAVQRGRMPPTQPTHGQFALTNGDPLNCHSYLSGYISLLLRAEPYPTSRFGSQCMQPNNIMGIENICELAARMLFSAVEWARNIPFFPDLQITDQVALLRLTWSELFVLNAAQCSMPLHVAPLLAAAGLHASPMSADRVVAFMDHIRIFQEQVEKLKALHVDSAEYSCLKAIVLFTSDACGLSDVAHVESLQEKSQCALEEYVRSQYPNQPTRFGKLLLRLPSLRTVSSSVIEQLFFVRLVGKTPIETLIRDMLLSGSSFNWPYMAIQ

[18] = HepG2 cell cytotoxicity, dose response, cytotoxicity control for Shn3 inhibitor project, CellTiter-Glo, cherry-picked (AID 624134); format: functional, cell-based
[19] = inhibitors of intracellular T. cruzi replication, confirmation, NIH3T3 host cells, beta-gal luminescence (AID 2044); format: functional, cell-based;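 note: intracellular parasites grown in NIH/3T3 mouse fibroblasts as host cells; luminescent beta-galactosidase reporter signal from transgenic T. cruzi replicating inside host cells; inhibitors lower the luminescence signal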
[20] = cytotoxicity toward NIH3T3 fibroblasts, dose response, counter-screen, cell-based, ATP luminescence, mouse fibroblasts (AID 2010); format: functional;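 note: cells exposed to compound for about 90 hours before reading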
[21] = control 3'UTR Renilla luciferase suppression, dose response, counter-screen for Shn3 inhibitor project, cell-based, Clone20-Shn3RL, cherry-picked (AID 624133); format: functional
Protein skinhead-1 = molecular target: T5, Protein skinhead-1 (Caenorhabditis elegans, UniProt P34707); format: functional
T5 sequence (P34707 whole entry): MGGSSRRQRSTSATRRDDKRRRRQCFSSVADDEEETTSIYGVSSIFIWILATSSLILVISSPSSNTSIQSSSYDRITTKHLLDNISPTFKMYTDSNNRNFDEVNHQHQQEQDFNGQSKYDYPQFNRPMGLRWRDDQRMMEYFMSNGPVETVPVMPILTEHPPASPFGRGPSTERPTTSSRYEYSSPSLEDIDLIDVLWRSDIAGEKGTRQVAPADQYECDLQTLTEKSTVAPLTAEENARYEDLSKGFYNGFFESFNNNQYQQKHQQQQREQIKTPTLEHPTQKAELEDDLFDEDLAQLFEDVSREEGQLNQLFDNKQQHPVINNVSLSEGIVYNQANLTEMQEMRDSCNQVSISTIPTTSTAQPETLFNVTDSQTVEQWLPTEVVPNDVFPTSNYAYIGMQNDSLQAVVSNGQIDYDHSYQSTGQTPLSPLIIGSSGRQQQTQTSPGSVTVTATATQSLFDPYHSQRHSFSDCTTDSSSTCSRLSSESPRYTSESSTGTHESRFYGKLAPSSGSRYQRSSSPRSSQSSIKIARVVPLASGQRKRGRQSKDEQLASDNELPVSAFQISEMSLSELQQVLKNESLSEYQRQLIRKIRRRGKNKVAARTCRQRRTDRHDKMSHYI

[22] = molecular target: 26S proteasome non-ATPase regulatory subunit 14 (Homo sapiens, UniProt O00487); assay: inhibition of proteasome subunit RPN11 – biochemical, fluorescence polarization, uHTS hits, confirmation (AID 602368); format: functional
[23] = molecular target: 72 kDa type IV collagenase (Homo sapiens, UniProt P08253); assay: Dose Response validation of uHTS RPN11 inhibitor hits using a MMP-2 Fluorescence assay.; format: functional
Prothrombin = Prothrombin (Bos taurus, UniProt P00735); assay: thrombin inhibition, dose response, biochemical, fluorescence polarization, uHTS hits (AID 602369); format: functional

T2 sequence (P65502 whole entry): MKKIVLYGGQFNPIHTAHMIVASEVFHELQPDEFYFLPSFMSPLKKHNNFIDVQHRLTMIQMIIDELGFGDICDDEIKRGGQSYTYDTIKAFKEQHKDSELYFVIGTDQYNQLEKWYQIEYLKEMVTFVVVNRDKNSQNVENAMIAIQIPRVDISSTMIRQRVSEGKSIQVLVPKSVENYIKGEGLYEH
Chain of 72 kDa type IV collagenase (P08253 whole entry): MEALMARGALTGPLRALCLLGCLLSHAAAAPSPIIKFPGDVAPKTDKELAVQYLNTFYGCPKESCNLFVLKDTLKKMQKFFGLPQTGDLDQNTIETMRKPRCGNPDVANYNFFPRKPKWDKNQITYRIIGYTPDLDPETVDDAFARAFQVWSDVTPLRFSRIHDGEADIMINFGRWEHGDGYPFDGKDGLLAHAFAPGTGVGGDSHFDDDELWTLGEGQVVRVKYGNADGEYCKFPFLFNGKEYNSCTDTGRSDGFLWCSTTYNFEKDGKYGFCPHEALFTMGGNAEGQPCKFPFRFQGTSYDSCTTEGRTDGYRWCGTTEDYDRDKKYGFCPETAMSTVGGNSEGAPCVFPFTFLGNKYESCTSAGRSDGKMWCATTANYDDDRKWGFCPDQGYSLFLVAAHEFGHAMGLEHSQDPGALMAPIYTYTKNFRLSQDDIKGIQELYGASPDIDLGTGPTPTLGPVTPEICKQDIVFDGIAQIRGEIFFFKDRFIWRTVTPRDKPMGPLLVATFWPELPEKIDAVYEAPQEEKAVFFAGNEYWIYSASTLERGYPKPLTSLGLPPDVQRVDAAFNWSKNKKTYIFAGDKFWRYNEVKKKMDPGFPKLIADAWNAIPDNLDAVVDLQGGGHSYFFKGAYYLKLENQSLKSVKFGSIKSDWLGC
Chain of 26S proteasome non-ATPase regulatory subunit 14 (O00487 whole entry): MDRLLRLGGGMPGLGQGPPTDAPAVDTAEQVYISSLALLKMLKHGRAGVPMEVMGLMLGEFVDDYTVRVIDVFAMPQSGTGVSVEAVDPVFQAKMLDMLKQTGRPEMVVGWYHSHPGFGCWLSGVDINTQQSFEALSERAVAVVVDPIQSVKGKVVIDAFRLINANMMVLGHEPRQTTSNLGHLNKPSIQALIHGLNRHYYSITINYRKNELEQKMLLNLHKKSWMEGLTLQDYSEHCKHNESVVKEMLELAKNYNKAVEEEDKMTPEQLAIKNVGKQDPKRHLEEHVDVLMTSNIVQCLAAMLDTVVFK
Chain of Paired box protein Pax-8 (Q06710 whole entry, the tested form may be a part): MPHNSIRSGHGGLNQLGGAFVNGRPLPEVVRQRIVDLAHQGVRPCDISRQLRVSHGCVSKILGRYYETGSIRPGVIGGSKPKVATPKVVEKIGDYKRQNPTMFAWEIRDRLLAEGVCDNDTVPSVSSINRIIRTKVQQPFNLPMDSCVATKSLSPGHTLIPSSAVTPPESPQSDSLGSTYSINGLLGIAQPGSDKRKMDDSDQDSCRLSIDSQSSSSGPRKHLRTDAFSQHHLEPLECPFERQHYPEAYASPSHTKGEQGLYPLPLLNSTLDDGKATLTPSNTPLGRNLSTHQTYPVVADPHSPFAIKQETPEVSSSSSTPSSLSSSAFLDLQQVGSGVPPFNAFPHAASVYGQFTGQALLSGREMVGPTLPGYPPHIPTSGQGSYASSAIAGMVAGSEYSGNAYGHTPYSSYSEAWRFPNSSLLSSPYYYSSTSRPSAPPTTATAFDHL

COC(=O)CCCC1=CC2=CC(=O)C(C)(OC(=O)CCc3ccccc3)C(=O)C2=CO1 (stereo not drawn)
EC50 [1]: 26.7 µM (active) | IC50 [2]: 14.2 µM (active) | IC50 [3]: 5.76 µM (active) | EC50 [4]: 30.9 µM (active)

CCOc1ccc2nc(NS(=O)(=O)c3cccs3)sc2c1
AC50 [5]: 1.99 µM (active) | AC50 [6]: 6.98 µM (active)

O=C(NCCc1ccccc1)Oc1ccc(Cl)cc1
IC50 (cells [7]): > 29.9 µM (inactive) | EC50 (cells [8]): > 29.9 µM (inactive)

CC(=NNc1ccc2ccccc2n1)c1ccccn1
AC50 [9]: 0.399 µM (active) | AC50 [10]: 3.13 µM (active) | AC50 (Paired box protein Pax-8): 2.27 µM (active) | AC50 [11]: 10.7 µM (active) | AC50 [12]: 5 µM (active) | AC50 [13]: 59.5 µM (active) | AC50 [14]: 8.41 µM (active)

COc1ccc(-c2csc(NC(=O)C3CCN(c4ncnc5sc(C)c(C)c45)CC3)n2)cc1OC
IC50 [15]: > 80 µM (inactive) | AC50 (INS1): 3.6 µM (active) | AC50 [16]: 1.42 µM (active) | IC50 [17]: 3.82 µM (active) | AC50 [18]: 1.86 µM (active) | EC50 [19]: 1.37 µM (active) | EC50 [20]: > 60 µM (not active) | AC50 [21]: 0.857 µM (active)

CNC(=O)C[C@H]1CC[C@@H]2[C@H](COc3ccc(NC(=O)C(C)C)cc3C(=O)N2C)O1
AC50 [5]: 9.62 µM (active)

Cn1c2ccccc2c2cc(C(=O)OCC(=O)N3CC(=O)Nc4ccccc43)sc21
IC50 (Protein skinhead-1): > 100 µM (inactive) | IC50 [22]: 13.9 µM (active) | IC50 [23]: > 100 µM (inactive) | IC50 (Prothrombin): 32.4 µM (active)
